This passage reports IC50 results from ChEMBL document CHEMBL1146968, “Novel skeleton terpenes from Celastrus hypoleucus with anti-tumor activities” (Bioorg Med Chem Lett, 2006).

A word on the IC50: it is the concentration that gives 50% inhibition. A lower IC50 goes with inhibition by little substance.

Holding throughout (type): functional, cell-based
In assay [1] the test system is Bcap37. Description: Antitumor activity against human Bcap37 cell line by MTT assay. (In general: Tetrazolium dyes change colour on reduction, which living cells bring about.)
The test system of assay [2] is K562. Put plainly: Antitumor activity against human K562 cell line by MTT assay.
The subject of assay [3] is RKO. Put plainly: Antitumor activity against human RKO cell line by MTT assay.
Assay [4] concerns SMMC-7721. Description: Antitumor activity against human SMMC7721 cell line by MTT assay.

In brackets after ≈: the same amount, converted by molar mass.

Regarding `CC1(C)CC[C@]2(C)CC[C@]3(C)C(=CC[C@@H]4[C@@]5(C)CC[C@H](O)C(C)(C)[C@@H]5[C@@H](O)C[C@]43C)C2C1` (some centres not stated), the 50% inhibitory concentration (IC50) in assay [1] amounted to 14.6 µg/mL (≈ 32.9 µM); in assay [2], 11.2 µg/mL (≈ 25.3 µM); in assay [3], 12.2 µg/mL (≈ 27.6 µM); in assay [4], 22.7 µg/mL (≈ 51.3 µM).

For `CO[C@@]12[C@H](COC(N)=O)C3=C(C(=O)C(C)=C(N)C3=O)N1C[C@@H]1N[C@@H]12` [MITOMYCIN], the concentration for half-maximal inhibition (IC50) in assay [1] worked out at 2.33 µg/mL (≈ 6.97 µM); in assay [2] it was 3.35 µg/mL (≈ 10 µM); in assay [3], 1.75 µg/mL (≈ 5.23 µM); in assay [4], 2.44 µg/mL (≈ 7.3 µM).

As to `CC1=C(C)[C@@H]2CC(=O)c3cc(O)c(O)cc3[C@@]2(C)CC1` [CELAHYPODIOL], the concentration for half-maximal inhibition (IC50) in assay [1] worked out at 24.4 µg/mL (≈ 89.7 µM); in assay [2] it was 16.2 µg/mL (≈ 59.5 µM); in assay [3] it was 27.2 µg/mL (≈ 99.7 µM); in assay [4], 38 µg/mL (≈ 140 µM).
